Assay results reported in patent US11161856B2 (H. Lundbeck A/S, priority 2017, dated 2021).

What was measured:
Format in all cases: biochemical
[1] = molecular target: T1, MAGL (Homo sapiens, UniProt Q99685); assay: In vitro competitive activity-based protein profiling (FP-Rh or HT-01 probe, gel-based); settings: for % Inh MGLL PFC (Human, μM): prefrontal cortex (PFC) proteome; for % Inh MGLL PFC (Human, μM) / % Inh MGLL PC3 (Human, μM): concentration not given (μM)
T1 construct: Proteomes (human prefrontal cortex or cell membrane fractions); from tissue
T1 sequence (Q99685 1-303): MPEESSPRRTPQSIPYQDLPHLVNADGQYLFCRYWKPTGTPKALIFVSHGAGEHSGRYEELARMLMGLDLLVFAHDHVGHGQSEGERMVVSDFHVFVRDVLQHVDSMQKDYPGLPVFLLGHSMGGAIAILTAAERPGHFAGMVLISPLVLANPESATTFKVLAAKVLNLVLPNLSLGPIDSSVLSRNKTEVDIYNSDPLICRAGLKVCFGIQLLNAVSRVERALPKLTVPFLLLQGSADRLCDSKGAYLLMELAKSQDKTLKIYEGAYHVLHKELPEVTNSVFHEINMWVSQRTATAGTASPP
Procedure, shortened: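 Human prefrontal cortex or cell membrane proteomes (1.0 mg/mL total protein) were preincubated with varying inhibitor concentrations for 30 min at 37° C. FP-Rh or HT-01 probe (50 μM DMSO stock) was then added for 30 min at room temperature, and samples were quenched in SDS loading buffer and resolved by SDS-PAGE.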

[2] = molecular target: T2, MGLL (Mus musculus, UniProt O35678); assay: In vitro competitive activity-based protein profiling, mouse brain proteome (MGLL); settings: concentration not given (μM)
T2 construct: Brain; from tissue; host or cells: mouse brain proteome
T2 sequence (O35678 1-303): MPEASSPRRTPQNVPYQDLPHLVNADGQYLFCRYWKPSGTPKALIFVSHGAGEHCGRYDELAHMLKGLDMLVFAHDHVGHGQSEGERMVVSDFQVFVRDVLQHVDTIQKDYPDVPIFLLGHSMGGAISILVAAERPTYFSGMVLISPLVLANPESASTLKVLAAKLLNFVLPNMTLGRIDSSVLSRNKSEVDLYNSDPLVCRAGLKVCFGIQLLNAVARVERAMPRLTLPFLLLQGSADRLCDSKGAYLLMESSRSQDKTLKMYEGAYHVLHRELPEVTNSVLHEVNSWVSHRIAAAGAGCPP

[3] = molecular target: T3, ABHD6 (Mus musculus, UniProt Q8R2Y0); assay: In vitro competitive activity-based protein profiling, mouse brain proteome (ABHD6); settings: mouse brain proteome; concentration not given (μM)
T3 construct: Brain; from tissue; host or cells: mouse brain proteome
T3 sequence (Q8R2Y0 1-336): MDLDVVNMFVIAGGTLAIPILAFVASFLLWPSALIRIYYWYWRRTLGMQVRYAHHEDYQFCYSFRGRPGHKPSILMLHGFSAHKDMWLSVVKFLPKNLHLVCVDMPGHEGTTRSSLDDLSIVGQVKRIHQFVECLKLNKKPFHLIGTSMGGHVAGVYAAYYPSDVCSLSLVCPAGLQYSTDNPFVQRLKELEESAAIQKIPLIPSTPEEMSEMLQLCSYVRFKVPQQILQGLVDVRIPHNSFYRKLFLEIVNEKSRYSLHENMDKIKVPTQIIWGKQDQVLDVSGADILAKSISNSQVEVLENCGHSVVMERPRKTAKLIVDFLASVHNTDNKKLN
Procedure: [The source words this procedure for another target and reports this target under the same test.] In Vitro Competitive Activity-Based Protein Profiling.
Proteomes (human prefrontal cortex or cell membrane fractions) (50 μL, 1.0 mg/mL total protein concentration) were preincubated with varying concentrations of inhibitors at 37° C. After 30 min, FP-Rh or HT-01 (1.0 μL, 50 μM in DMSO) was added and the mixture was incubated for another 30 min at room temperature. Reactions were quenched with SDS loading buffer (15 μL-4×) and run on SDS-PAGE.

Compound	% Inh MGLL PFC (Human, μM) [1]	% Inh MGLL Brain (Mouse, μM) [2]	% Inh ABHD6 Brain (Mouse, μM) [3]	% Inh MGLL PC3 (Human, μM) ([1]; PC3 cell proteome)	IC50 ([1]; PC3 cell proteome, read-out: IC50 MGLL PC3 (Human))
CC1(C(=O)O)CN(c2cc(C(F)(F)F)ccc2CN2CC3(CCN(C(=O)OC(C(F)(F)F)C(F)(F)F)CC3)C2)CCO1 (centres unmarked) [Example 130, 4-(2-((7-(((1,1,1,3,3,3-Hexafluoropropan-2-yl)oxy)carbonyl)-2,7-diazaspiro[3.5]nonan-2-yl)methyl)-5-(trifluoromethyl)phenyl)-2-methylmorpholine-2-carboxylic acid]	### (### is ≥75%)	### (### is ≥75%)	# (# is ≤25%)	–	–
O=C(O)c1ccc(CN2CC3(CCN(C(=O)OC(C(F)(F)F)C(F)(F)F)CC3)C2)cc1C(F)(F)F [Example 131, 4-((7-(((1,1,1,3,3,3-Hexafluoropropan-2-yl)oxy)carbonyl)-2,7-diazaspiro[3,5]nonan-2-yl)methyl)-2-(trifluoromethyl)benzoic acid]	### (### is ≥75%)	## (## is between 25 and 75%)	### (### is ≥75%)	–	–
CN(Cc1ccc(C(F)(F)F)cc1N1CCC[C@H]1C(=O)O)C1(C)CCN(C(=O)OC(C(F)(F)F)C(F)(F)F)CC1 [Example 132, (2-(((1-(((1,U, 3,3,3-Hexafluoropropan-2-yl)oxy)carbonyl)-4-methylpiperidin-4-yl)(methyl)amino)methyl)-5-(trifluoromethyl)phenyl)proline]	### (### is ≥75%)	### (### is ≥75%)	# (# is ≤25%)	### (### is ≥75%)	100 to 1000 nM
CN(Cc1ccc(C(F)(F)F)cc1C1(C(=O)O)CCCC1)C1(C)CCN(C(=O)OC(C(F)(F)F)C(F)(F)F)CC1 [Example 133, l-(2-{[(1-{[(1,1,1,3,3,3-Hexafluoropropan-2-yl)oxy]carbonyl}-4-methylpiperidin-4-yl)(methyl)amino]methyl}-5-(trifluoromethyl)phenyl)cyclop entane-1-carboxylic acid]	–	### (### is ≥75%)	# (# is ≤25%)	### (### is ≥75%)	–
O=C(OC(C(F)(F)F)C(F)(F)F)N1CCC2(CCCN2Cc2cc(Cl)cc(C3(C(=O)O)CCCC3)c2)CC1 [Example 134, l-{3-Chloro-5-[(8-{[(1,1,1,3,3,3-hexafluoropropan-2-yl)oxy]carbonyl}-1,8-diazaspiro[4.5]decan-1-yl)methyl]phenyl}cyclopentane-1-carboxylic acid]	–	### (### is ≥75%)	# (# is ≤25%)	### (### is ≥75%)	–
CN(Cc1ccc(Cl)cc1N1CCC(C(=O)O)CC1)C1(C)CCN(C(=O)OC(C(F)(F)F)C(F)(F)F)CC1 [Example 135, l-(5-Chloro-2-(((1-(((1,1,1,3,3,3-hexafluoropropan-2-yl)oxy)carbonyl)-4-methylpiperidin-4-yl)(methyl)amino)methyl)phenyl)piperidine-4-carboxylic acid]	–	### (### is ≥75%)	### (### is ≥75%)	### (### is ≥75%)	–
CN(Cc1ccc(C(F)(F)F)cc1OCC(=O)O)C1(C)CCN(C(=O)OC(C(F)(F)F)C(F)(F)F)CC1 [Example 136, 2-(2-(((1-(((1,1,1,3,3,3-Hexafluoropropan-2-yl)oxy)carbonyl)-4-methylpiperidin-4-yl)(methyl)amino)methyl)-5-(trifluoromethyl)phenoxy)acetic acid]	–	### (### is ≥75%)	# (# is ≤25%)	### (### is ≥75%)	–
CN(Cc1ccc(C(F)(F)F)cc1CN1CCC(C(=O)O)CC1)C1(C)CCN(C(=O)OC(C(F)(F)F)C(F)(F)F)CC1 [Example 137, l-(2-(((1-(((1,1,1,3,3,3-Hexafluoropropan-2-yl)oxy)carbonyl)-4-methylpiperidin-4-yl)(methyl)amino)methyl)-5-(trifluoromethyl)benzyl)piperidine-4-carboxylic acid]	–	### (### is ≥75%)	# (# is ≤25%)	### (### is ≥75%)	–
CN(Cc1cc(C(F)(F)F)cc(C2(C(=O)O)CCCC2)c1)C1(C)CCN(C(=O)OC(C(F)(F)F)C(F)(F)F)CC1 [Example 138, l-(3-{[(1-{[(1,1,1,3,3,3-Hexafluoropropan-2-yl)oxy]carbonyl}-4-methylpiperidin-4-yl)(methyl)ainino]methyl}-5-(trifluoromethyl)phenyl)cyclop entane-1-carboxylic acid]	–	### (### is ≥75%)	### (### is ≥75%)	### (### is ≥75%)	–
CN(Cc1cc(N2CCOC(C)(C(=O)O)C2)cc(C(F)(F)F)c1)C1(C)CCN(C(=O)OC(C(F)(F)F)C(F)(F)F)CC1 (centres unmarked) [Example 139, 4-(3-(((1-(((1,1,1,3,3,3-Hexafluoropropan-2-yl)oxy)carbonyl)-4-methylpiperidin-4-yl)(methyl)amino)methyl)-5-(trifluoromethyl)phenyl)-2-methylmorpholine-2-carboxylic acid]	### (### is ≥75%)	### (### is ≥75%)	## (## is between 25 and 75%)	–	–
CC(C)(C#Cc1cc(CN2CCCC23CCN(C(=O)OC(C(F)(F)F)C(F)(F)F)CC3)cc(C(F)(F)F)c1)C(=O)O [Example 140, 4-{3-[(8-{[(1,1,1,3,3,3-Hexafluoropropan-2-yl)oxy]carbonyl}-1,8-diazaspiro[4.5]decan-1-yl)methyl]-5-(trifluoromethyl)phenyl}-2,2-dimethylbut-3-ynoic acid]	–	### (### is ≥75%)	### (### is ≥75%)	### (### is ≥75%)	–
CN(Cc1ccccc1C1(C(=O)O)CCCC1)C1(C)CCN(C(=O)OC(C(F)(F)F)C(F)(F)F)CC1 [Example 141, 1-(2-{[(1-{[(1,1,1,3,3,3-Hexafluoropropan-2-yl)oxy]carbonyl}-4-methylpiperidin-4-yl)(methyl)amino]methyl}phenyl)cyclopentane-1-carboxylic acid]	–	### (### is ≥75%)	# (# is ≤25%)	### (### is ≥75%)	–
CN(Cc1ccc(Cl)cc1C1(C(=O)O)CCCC1)C1(C)CCN(C(=O)OC(C(F)(F)F)C(F)(F)F)CC1 [Example 142, 1-(5-Chloro-2-{[(1-{[(1,1,1,3,3,3-hexafluoropropan-2-yl)oxy]carbonyl}-4-methylpiperidin-4-yl)(methyl)amino]methyl}phenyl)cyclopentane-1-carboxylic acid]	–	### (### is ≥75%)	# (# is ≤25%)	### (### is ≥75%)	–
CN(Cc1ccc(F)cc1C1(C(=O)O)CCCC1)C1(C)CCN(C(=O)OC(C(F)(F)F)C(F)(F)F)CC1 [Example 143, 1-(5-Fluoro-2-{[(1-{[(1,1,1,3,3,3-hexafluoropropan-2-yl)oxy]carbonyl}-4-methylpiperidin-4-yl)(methyl)amino]methyl}phenyl)cyclopentane-1-carboxylic acid]	–	### (### is ≥75%)	# (# is ≤25%)	### (### is ≥75%)	–
CN(Cc1cccc(F)c1C1(C(=O)O)CCCC1)C1(C)CCN(C(=O)OC(C(F)(F)F)C(F)(F)F)CC1 [Example 144, l-(2-Fluoro-6-{[(1-{[(1.1,1,3,3,3-hexafluoropropan-2-yl)oxy]carbonyl}-4-methylpiperidin-4-yl)(methyl)ainino]methyl}phenyl)cyclopentane-1-carboxylic acid]	–	### (### is ≥75%)	# (# is ≤25%)	### (### is ≥75%)	–
